The values that follow are results of earlier work, collected in patent US6733789B1 (Biovail Laboratories, Inc., priority 1999, dated 2004).

As to `CC(C)NCC(O)COc1ccc(COCCOC(C)C)cc1` (stereo not drawn) [bisoprolol], the peak plasma concentration (after a 10 mg dose, oral) was 40 ng/mL. Moreover, the “effect of food on peak plasma concentrations” value (concomitant food intake or fasting) is listed as “appear not to be affected by concomitant food intake or fasting”. In addition, the “dependence of pharmacokinetic properties on age or dose” value (dose range 2.5-100 mg) is on record as “not dependent on age or dose”. For the setting “in vivo”, the “excreted unchanged in the urine” value is “About 50%” and the “mean plasma half life” value was 10 to 12 h. For the setting “oral administration”, the pre-systemic metabolism entry was “below 10%” and the “time to peak plasma concentrations” value is reported as “three”. Further, the adverse effects entry (spontaneously mentioned by patients treated with bisoprolol) is “Dizziness, headache and tiredness are the most frequent adverse effects”. Also, the “biotransformed in the liver” value (subsequent elimination of inactive metabolites via the kidneys) was 50%.
